{
  "source": "ChEMBL document CHEMBL1201862",
  "about": "“PubChem BioAssay data set” (2004)",
  "key": {"[1]": {"biological_target": "Serine/threonine-protein kinase pim-1 (Homo sapiens, UniProt P11309)", "assay_type": "functional"}, "[2]": {"biological_target": "Cell division cycle 7-related protein kinase (Homo sapiens, UniProt O00311)", "assay_type": "functional"}, "[3]": {"biological_target": "Homeodomain-interacting protein kinase 2 (Homo sapiens, UniProt Q9H2X6)", "assay_type": "functional"}, "[4]": {"biological_target": "MAP kinase-interacting serine/threonine-protein kinase 2 (Homo sapiens, UniProt Q9HBH9)", "assay_type": "functional"}, "[5]": {"biological_target": "Interleukin-1 receptor-associated kinase 4 (Homo sapiens, UniProt Q9NWZ3)", "assay_type": "functional"}, "[6]": {"biological_target": "Glycogen synthase kinase-3 beta (Homo sapiens, UniProt P49841)", "assay_type": "functional"}, "[7]": {"biological_target": "cAMP-dependent protein kinase catalytic subunit alpha (Homo sapiens, UniProt P17612)", "assay_type": "functional"}, "[8]": {"biological_target": "Dual specificity protein kinase CLK4 (Homo sapiens, UniProt Q9HAZ1)", "sequence (Q9HAZ1 whole entry)": "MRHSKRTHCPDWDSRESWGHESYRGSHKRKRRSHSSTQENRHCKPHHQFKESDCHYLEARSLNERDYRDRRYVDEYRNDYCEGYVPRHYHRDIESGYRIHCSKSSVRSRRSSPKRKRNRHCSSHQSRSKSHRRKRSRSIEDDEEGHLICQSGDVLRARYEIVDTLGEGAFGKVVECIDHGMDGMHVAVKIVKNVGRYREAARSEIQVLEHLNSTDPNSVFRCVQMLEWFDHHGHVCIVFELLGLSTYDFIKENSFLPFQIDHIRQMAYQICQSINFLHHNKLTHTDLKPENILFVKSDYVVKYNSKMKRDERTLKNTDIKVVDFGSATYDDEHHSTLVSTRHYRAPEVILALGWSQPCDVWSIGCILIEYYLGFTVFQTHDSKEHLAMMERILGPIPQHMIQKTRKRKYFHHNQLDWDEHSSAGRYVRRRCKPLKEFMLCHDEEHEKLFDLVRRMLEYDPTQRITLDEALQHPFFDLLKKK", "assay_type": "functional"}, "[9]": {"biological_target": "Mitogen-activated protein kinase kinase kinase kinase 4 (Homo sapiens, UniProt O95819)", "assay_type": "functional"}, "LIM domain kinase 1": {"biological_target": "LIM domain kinase 1 (Homo sapiens, UniProt P53667)", "sequence (P53667 whole entry, the tested form may be a part)": "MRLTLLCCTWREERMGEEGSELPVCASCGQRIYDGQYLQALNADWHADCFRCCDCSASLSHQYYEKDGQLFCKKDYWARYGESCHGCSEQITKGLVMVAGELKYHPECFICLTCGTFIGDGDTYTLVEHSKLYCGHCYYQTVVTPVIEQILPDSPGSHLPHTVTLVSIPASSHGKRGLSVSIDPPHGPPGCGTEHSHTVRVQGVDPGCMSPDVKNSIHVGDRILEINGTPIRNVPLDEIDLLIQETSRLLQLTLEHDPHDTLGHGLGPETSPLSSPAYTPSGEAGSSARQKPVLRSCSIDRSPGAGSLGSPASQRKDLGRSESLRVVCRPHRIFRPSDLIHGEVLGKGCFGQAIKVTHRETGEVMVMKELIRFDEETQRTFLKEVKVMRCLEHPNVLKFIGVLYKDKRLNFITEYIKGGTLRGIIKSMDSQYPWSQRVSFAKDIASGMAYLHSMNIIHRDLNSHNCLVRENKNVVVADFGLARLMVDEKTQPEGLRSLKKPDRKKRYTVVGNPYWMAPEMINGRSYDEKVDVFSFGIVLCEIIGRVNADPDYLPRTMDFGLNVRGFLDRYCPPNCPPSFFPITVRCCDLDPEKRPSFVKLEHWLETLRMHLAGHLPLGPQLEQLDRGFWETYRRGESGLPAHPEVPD", "experiment": "Navigating the Kinome. Panel member name: LIMK1", "assay_type": "functional"}, "[10]": {"biological_target": "T1, Serine/threonine-protein kinase Chk1 (Homo sapiens, UniProt O14757)", "T1 sequence (O14757 whole entry)": "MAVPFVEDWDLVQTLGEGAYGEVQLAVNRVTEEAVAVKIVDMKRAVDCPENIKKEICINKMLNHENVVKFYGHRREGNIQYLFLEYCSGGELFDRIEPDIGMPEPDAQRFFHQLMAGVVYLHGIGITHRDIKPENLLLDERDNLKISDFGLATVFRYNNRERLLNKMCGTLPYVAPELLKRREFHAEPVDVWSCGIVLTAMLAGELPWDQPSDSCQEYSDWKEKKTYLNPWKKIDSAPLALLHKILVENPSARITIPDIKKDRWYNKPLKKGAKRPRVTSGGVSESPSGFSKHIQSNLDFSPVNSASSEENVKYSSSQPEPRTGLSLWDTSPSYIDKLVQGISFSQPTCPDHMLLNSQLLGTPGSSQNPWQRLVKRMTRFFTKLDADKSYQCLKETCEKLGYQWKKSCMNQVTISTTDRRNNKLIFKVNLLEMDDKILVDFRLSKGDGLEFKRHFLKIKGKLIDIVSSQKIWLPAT", "assay_type": "functional"}, "[11]": {"biological_target": "Cyclin-dependent kinase 5 (Homo sapiens, UniProt Q00535)", "sequence (Q00535 whole entry)": "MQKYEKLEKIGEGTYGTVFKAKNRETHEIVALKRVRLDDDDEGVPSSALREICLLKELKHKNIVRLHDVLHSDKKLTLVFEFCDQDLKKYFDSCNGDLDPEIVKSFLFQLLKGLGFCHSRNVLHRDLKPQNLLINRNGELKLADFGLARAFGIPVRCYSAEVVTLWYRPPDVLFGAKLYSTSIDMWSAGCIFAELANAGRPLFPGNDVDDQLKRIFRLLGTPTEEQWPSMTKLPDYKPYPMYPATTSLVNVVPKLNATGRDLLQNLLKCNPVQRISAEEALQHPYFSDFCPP", "assay_type": "functional"}, "[12]": {"biological_target": "DNA dC->dU-editing enzyme APOBEC-3G (Homo sapiens, UniProt Q9HC16)", "sequence (Q9HC16 whole entry)": "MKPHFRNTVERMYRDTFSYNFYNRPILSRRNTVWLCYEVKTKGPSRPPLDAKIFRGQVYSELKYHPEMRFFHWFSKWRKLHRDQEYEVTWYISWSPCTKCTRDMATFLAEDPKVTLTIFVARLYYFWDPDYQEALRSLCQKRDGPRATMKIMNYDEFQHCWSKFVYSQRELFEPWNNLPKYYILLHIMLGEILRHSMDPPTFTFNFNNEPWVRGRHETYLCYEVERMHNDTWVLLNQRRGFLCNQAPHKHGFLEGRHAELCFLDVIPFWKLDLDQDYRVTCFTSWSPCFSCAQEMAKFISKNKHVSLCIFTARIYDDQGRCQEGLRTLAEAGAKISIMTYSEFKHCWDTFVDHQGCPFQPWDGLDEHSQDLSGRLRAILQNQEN", "experiment": "inhibition of APOBEC3G ssDNA deamination – biochemical, fluorescence, single-stranded DNA substrate, SAR follow-up (AID 602136)", "assay_type": "functional", "conditions": "read-out: IC50_Mean"}, "[13]": {"biological_target": "DNA dC->dU-editing enzyme APOBEC-3A (Homo sapiens, UniProt P31941)", "sequence (P31941 whole entry)": "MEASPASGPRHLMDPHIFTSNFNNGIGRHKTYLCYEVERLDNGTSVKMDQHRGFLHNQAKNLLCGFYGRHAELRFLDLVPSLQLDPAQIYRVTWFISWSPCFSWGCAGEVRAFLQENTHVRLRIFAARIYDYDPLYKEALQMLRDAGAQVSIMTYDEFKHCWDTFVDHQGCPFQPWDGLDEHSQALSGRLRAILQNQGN", "experiment": "SAR analysis of small molecule inhibitors of APOBEC3A DNA Deaminase via a fluorescence-based single-stranded DNA deaminase assay.", "assay_type": "functional", "conditions": "read-out: IC50_Mean"}, "[14]": {"biological_target": "T2, RNA-binding protein pos-1 (Caenorhabditis elegans, UniProt G5EF15)", "T2 sequence (G5EF15 whole entry)": "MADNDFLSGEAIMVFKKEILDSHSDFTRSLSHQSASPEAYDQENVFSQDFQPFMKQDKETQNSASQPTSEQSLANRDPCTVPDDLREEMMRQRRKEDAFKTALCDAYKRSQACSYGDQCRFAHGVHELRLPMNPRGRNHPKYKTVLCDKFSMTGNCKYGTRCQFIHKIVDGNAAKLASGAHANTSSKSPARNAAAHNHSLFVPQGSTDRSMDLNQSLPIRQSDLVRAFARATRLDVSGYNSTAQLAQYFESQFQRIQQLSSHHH", "experiment": "disruptors of C. elegans POS-1 RNA interaction – biochemical, fluorescence polarization, dose response (AID 1964);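 further: purified POS-1 fused to maltose binding protein made in E. coli; potency of compounds blocking POS-1 binding to fluorescent RNA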"}, "[15]": {"biological_target": "T3, Zinc finger protein mex-5 (Caenorhabditis elegans, UniProt Q9XUB2)", "T3 sequence (Q9XUB2 whole entry)": "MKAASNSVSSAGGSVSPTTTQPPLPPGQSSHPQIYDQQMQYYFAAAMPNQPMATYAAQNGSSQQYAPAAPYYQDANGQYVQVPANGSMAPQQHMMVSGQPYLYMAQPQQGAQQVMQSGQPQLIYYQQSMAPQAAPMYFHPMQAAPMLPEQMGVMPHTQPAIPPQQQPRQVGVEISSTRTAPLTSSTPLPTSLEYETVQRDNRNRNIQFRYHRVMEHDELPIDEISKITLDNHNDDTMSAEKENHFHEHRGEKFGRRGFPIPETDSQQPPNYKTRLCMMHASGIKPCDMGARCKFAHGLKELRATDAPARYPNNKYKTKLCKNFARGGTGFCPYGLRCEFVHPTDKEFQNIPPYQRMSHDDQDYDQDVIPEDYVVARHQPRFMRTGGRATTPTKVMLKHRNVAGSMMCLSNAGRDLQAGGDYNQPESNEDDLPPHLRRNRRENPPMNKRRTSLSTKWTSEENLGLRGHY", "experiment": "potency of MEX-5 RNA-binding blockers – biochemical, C. elegans, fluorescence polarization, dose response (AID 1960)"}, "[16]": {"biological_target": "26S proteasome non-ATPase regulatory subunit 14 (Homo sapiens, UniProt O00487)", "experiment": "inhibition of proteasome subunit RPN11 – biochemical, fluorescence polarization, uHTS hits, confirmation (AID 602368)", "assay_type": "functional"}, "[17]": {"biological_target": "72 kDa type IV collagenase (Homo sapiens, UniProt P08253)", "sequence (P08253 whole entry)": "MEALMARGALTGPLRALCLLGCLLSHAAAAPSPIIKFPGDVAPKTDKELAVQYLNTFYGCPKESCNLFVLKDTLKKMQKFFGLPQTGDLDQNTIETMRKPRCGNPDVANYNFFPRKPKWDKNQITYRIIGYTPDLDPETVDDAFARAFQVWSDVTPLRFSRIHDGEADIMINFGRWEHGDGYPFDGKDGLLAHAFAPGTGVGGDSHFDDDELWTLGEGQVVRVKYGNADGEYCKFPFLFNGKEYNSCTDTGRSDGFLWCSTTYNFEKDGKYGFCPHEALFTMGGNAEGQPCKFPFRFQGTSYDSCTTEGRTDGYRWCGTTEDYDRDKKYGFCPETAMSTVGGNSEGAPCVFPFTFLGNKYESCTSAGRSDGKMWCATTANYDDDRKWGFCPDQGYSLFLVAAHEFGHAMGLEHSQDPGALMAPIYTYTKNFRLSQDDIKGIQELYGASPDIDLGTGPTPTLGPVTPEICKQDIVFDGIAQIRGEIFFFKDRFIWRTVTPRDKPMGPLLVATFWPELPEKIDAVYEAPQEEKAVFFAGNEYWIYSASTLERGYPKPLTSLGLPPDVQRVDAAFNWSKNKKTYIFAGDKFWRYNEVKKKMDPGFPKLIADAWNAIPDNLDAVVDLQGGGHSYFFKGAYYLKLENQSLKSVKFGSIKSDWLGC", "experiment": "Dose Response validation of uHTS RPN11 inhibitor hits using a MMP-2 Fluorescence assay.", "assay_type": "functional"}, "Prothrombin": {"biological_target": "Prothrombin (Bos taurus, UniProt P00735)", "experiment": "thrombin protease inhibitors – biochemical, fluorescence polarization, uHTS hits, dose response (AID 602369)", "assay_type": "functional"}, "[18]": {"biological_target": "Serine/threonine-protein kinase D2 (Homo sapiens, UniProt Q9BZL6)", "assay_type": "functional"}, "[19]": {"biological_target": "Protein kinase C gamma type (Homo sapiens, UniProt P05129)", "assay_type": "functional"}, "[20]": {"biological_target": "MAP kinase-activated protein kinase 3 (Homo sapiens, UniProt Q16644)", "assay_type": "functional"}, "[21]": {"biological_target": "G protein-coupled receptor kinase 5 (Homo sapiens, UniProt P34947)", "sequence (P34947 whole entry)": "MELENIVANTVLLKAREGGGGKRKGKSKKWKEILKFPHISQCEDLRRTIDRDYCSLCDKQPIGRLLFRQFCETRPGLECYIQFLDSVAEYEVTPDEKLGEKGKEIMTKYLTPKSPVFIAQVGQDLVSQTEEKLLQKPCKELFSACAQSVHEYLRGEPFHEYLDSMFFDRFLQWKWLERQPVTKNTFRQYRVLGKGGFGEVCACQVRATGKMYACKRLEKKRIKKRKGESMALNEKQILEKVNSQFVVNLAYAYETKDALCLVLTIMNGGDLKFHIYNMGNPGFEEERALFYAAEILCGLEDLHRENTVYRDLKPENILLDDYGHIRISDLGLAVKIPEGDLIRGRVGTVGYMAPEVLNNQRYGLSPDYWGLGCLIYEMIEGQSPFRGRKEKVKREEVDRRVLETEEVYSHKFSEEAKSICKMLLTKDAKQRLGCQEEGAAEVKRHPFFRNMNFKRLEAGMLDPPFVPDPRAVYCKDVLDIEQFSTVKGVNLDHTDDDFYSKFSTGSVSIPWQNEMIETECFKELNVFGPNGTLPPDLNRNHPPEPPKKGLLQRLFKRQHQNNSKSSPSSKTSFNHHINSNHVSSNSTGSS", "experiment": "Navigating the Kinome. Panel member name: GPRK5", "assay_type": "functional"}, "[22]": {"biological_target": "Mitogen-activated protein kinase kinase kinase 10 (Homo sapiens, UniProt Q02779)", "sequence (Q02779 whole entry)": "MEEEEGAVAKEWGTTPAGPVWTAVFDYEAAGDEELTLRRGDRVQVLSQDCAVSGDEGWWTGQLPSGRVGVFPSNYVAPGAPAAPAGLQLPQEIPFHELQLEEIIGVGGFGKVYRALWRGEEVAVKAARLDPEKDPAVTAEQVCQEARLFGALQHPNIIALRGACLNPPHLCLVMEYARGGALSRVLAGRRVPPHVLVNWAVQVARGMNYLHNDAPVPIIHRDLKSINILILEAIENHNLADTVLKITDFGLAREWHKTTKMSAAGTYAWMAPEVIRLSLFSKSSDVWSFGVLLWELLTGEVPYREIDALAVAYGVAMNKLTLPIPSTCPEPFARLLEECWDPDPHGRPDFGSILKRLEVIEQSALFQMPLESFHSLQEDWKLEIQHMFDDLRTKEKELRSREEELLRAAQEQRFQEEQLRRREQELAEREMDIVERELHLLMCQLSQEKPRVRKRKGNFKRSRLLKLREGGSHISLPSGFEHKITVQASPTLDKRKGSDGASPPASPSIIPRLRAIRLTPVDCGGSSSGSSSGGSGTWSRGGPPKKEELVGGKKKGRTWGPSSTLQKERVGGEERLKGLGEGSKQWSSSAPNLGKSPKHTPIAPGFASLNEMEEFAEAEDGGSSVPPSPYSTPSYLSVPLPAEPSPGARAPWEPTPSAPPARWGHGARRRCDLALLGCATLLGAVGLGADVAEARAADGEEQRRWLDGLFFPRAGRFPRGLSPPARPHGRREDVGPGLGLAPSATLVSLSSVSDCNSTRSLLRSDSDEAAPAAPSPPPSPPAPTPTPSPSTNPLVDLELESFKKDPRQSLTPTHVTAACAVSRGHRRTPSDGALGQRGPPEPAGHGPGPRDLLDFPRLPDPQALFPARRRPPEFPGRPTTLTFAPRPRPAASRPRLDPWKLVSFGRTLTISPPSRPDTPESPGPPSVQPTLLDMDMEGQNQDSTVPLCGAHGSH", "experiment": "Navigating the Kinome. Panel member name: MAP3K10", "assay_type": "functional"}},
  "note": "The source made the active and inactive calls.",
  "data": [
    {"compound": "CC(C)(Nc1nccc(-c2c[nH]c3ncccc23)n1)c1ccccc1", "values": [
      {"measurement": "Ki", "setting": "[1]", "value": "1.26 µM (active)"},
      {"measurement": "Ki", "setting": "[2]", "value": "0.02 µM (active)"},
      {"measurement": "Ki", "setting": "[3]", "value": "0.316 µM (active)"},
      {"measurement": "Ki", "setting": "[4]", "value": "0.0251 µM (active)"},
      {"measurement": "Ki", "setting": "[5]", "value": "0.0158 µM (active)"},
      {"measurement": "Ki", "setting": "[6]", "value": "0.126 µM (active)"},
      {"measurement": "Ki", "setting": "[7]", "value": "0.0126 µM (active)"},
      {"measurement": "Ki", "setting": "[8]", "value": "0.00316 µM (active)"},
      {"measurement": "Ki", "setting": "[9]", "value": "0.0158 µM (active)"}
    ]},
    {"compound": "O=[N+]([O-])c1ccc2[nH]c(-c3ccco3)nc2c1", "values": [
      {"measurement": "Ki", "setting": "LIM domain kinase 1", "value": "3.16 µM (active)"},
      {"measurement": "Ki", "setting": "[10]", "value": "2.51 µM (active)"},
      {"measurement": "Ki", "setting": "[11]", "value": "2.51 µM (active)"},
      {"measurement": "Ki", "setting": "[8]", "value": "1.58 µM (active)"}
    ]},
    {"compound": "CCn1c(=O)c2ccccc2n2c(COc3ccc4c(C(F)(F)F)cc(=O)oc4c3)nnc12", "values": [
      {"measurement": "IC50", "setting": "[12]", "value": "> 99 µM (inactive)"},
      {"measurement": "IC50", "setting": "[13]", "value": "> 99 µM (inactive)"}
    ]},
    {"compound": "O=C(N/N=C/c1ccc(-c2ccc([N+](=O)[O-])cc2)o1)c1cccnc1", "values": [
      {"measurement": "EC50", "setting": "[14]", "value": "> 300 µM (not active)"},
      {"measurement": "EC50", "setting": "[15]", "value": "27.4 µM (active)"},
      {"measurement": "IC50", "setting": "[16]", "value": "28.6 µM (active)"},
      {"measurement": "IC50", "setting": "[17]", "value": "> 100 µM (inactive)"},
      {"measurement": "IC50", "setting": "Prothrombin", "value": "19.8 µM (active)"}
    ]},
    {"compound": "O=C(O)c1ccc(Nc2ncc3c(n2)-c2ccc(Cl)cc2C(c2c(F)cccc2F)=NC3)cc1", "note": "[MLN-8054]", "values": [
      {"measurement": "Ki", "setting": "[18]", "value": "> 10 µM (inactive)"},
      {"measurement": "Ki", "setting": "[19]", "value": "> 7.94 µM (inactive)"},
      {"measurement": "Ki", "setting": "[20]", "value": "> 10 µM (inactive)"},
      {"measurement": "Ki", "setting": "[21]", "value": "1 µM (active)"},
      {"measurement": "Ki", "setting": "[22]", "value": "> 3.16 µM (inactive)"}
    ]}
  ]
}
